This is an account of results in patent publication US20090170899A1, “Stimulators of 5-HT4 receptors and uses thereof” (priority 2004, published 2009).

This experiment is described as follows: Forced swimming test (FST). The note with it: for change of total time of immobility in FST: Example 3, single i.p. 30 min before test, citalopram or paroxetine 10 mg/kg; for change of total time of immobility in FST / time of immobility in FST: prucalopride 2.5 mg/kg, RS 67333 1.5 mg/kg; for time of immobility in FST: 4 min observation, i.p. 30 min before test, control 88.2±7.2. It is filed as in vivo, rat. The source says: The “forced swimming test” (FST) is a behavioural test for rodents, which predicts the efficacy of antidepressant drugs (Porsolt et al., 1977; Lucki, 1997). […] The widespread use of this model is largely a result of its ease of use, reliability across laboratories and ability to detect a broad spectrum of antidepressant agents. The test is based on the observation that rats, following initial escape-oriented movements (climbing and swimming), develop an immobile posture when placed in an inescapable cylinder of water. If they are replaced in the same testing apparatus 24 h later, they resume this immobile posture quickly. The immobility is thought to reflect either a failure of persistence in escape-directed behavior (i.e. behavioral despair) or the development of passive behavior that disengages the animal from active forms of coping with stressful stimuli. If antidepressant treatments are given between the two exposures, the subjects will actively persist engaging in escape-directed behaviors for longer periods of time than after vehicle treatment. This will be reflected by a reduction of immobility time, and by an increase of climbing attempts. […] The combination effect of a particular 5-HT4 agonist and a SSRI may be evaluated using the FST model.
Experiments were carried out in male Sprague-Dawley rats (Charles River, St Constant, Québec). We used the FST as previously described (Porsolt et al., 1977). Briefly, the rats experienced a pretest session followed 24 hours later by a test session. For both the pretest and the test sessions, conducted under low illumination (12 lx), the rats were placed in a plastic cylindrical tank (50 cm high by 20 cm in diameter) filled with water at […], with a depth of 40 cm, for which the hind limbs could not reach the tank floor. In all experiments, the pretest was carried out for 15 min and the test for 5 min in the same tank but only the last 4 min were analyzed. Following either pretest or test sessions, rats were dried with a towel and kept warm for 30 min before returning in their home cage. A digital camera recorded on line animal's behavior during the FST, and both time of immobility and climbing attempts were counted. Citalopram hydrobromide (10 mg/kg, i.p.) or paroxetine (10 mg/kg, i.p.) and prucalopride hydrochloride (2.5 mg/kg, i.p.) or RS 67333 hydrochloride (1.5 mg/kg, i.p.) were administered simultaneously 30 minutes before the test session. Animals were divided into 4 groups: vehicle/vehicle, 5-HT4 agonist/vehicle, vehicle/SSRI and 5-HT4 agonist/SSRI. For each compound, distilled water was used as the vehicle. All drug dosages refer to the free base.
Behavioral experiments. We used the FST as previously described (Porsolt et al., 1977). Briefly, rats experienced a pre-test session followed 24 hours later by a test session. For both the pre-test and the test sessions, conducted under low illumination (12 lx), the animals were placed in a plastic cylindrical tank (50 cm high by 20 cm in diameter) filled with water at […], with a depth of 40 cm, for which the hind limbs could not reach the tank floor. In all experiments, the pre-test was carried out for 15 min and the test for 5 min in the same tank but the last 4 min only were analyzed. Prucalopride (2.5 mg/kg, i.p.) and RS 67333 (1.5 mg/kg, i.p.) were administered 30 min before the test session. Following either pre-test or test sessions, rats were dried with a towel and kept warm for 30 min before returning in their home cage. A camera coupled with a computer recorded on line animal behavior during the FST through a specialized digital interface (Videotrack, ViewPoint, Lyon, France). This interface underscored on line the subtraction of video frames. Immobility time in FST was derived from the number of frames (every 40 ms) being below a predefined threshold over FST duration.

On to `CCCCN1CCC(CCC(=O)c2cc(Cl)c(N)cc2OC)CC1` [RS 67333, 1-(4-amino-5-chloro-2-methoxyphenyl)-3-(1-n-burtl-4-piperidinyl)-1-propanone], for which the “change of total time of immobility in FST” value was “very similar effect”. Also, the “time of immobility in FST” value (Example 6) worked out at 42.7 ± 4.9 s. For the setting “Example 6, RS 67333 1.5 mg/kg i.p.”, the “increase of climbing in FST” value is “+94%”.
As to `COCCCN1CCC(NC(=O)c2cc(Cl)c(N)c3c2OCC3)CC1` [prucalopride], the “change of total time of immobility in FST” value is given as −54%. Besides, under “Example 6”, the “time of immobility in FST” value is 43.4 ± 3.5 s.
